According to patent US20140017230A1, “CHRONIC LYMPHOCYTIC LEUKEMIA (CLL) BIOMARKERS” (HOFFMANN-LAROCHE INC., priority 2011, published 2014):

Assays:
CLL patients = experiment: Phase III trial in CLL patients, R-FC vs FC: progression free survival (PFS) by pretreatment biomarker expression in CD19+ PBMC; format: in vivo, human; settings: for Median PFS PTK2 Exon 1.0 ST / Median PFS PTK2 U133 plus2.0 / Median PFS PTK2 qRT-PCR / Median PFS miRNA151 DISCOVARRAY / Median PFS miRNA151 qRT-PCR / Median PFS miRNA409 DISCOVARRAY / Median PFS miRNA409 qRT-PCR: CLL patients; for Median PFS PTK2 Exon 1.0 ST / Median PFS PTK2 U133 plus2.0 / Median PFS PTK2 qRT-PCR: PTK2 expression in CD19+ cells
Procedure: Pretreatment patient samples were analyzed from an international, multicenter, open-label, phase III trial, randomizing CLL patients to receive R-FC (rituximab plus fludarabine/cyclophosphamide) or FC (fludarabine/cyclophosphamide) alone. […] The study protocol was approved by institutional review boards at participating centers and all patients gave written informed consent. Details on trial design and eligibility criteria have been described in Robak et al. J. Clin. Oncol. 28(10):1756-1765 (2010). Patients were selected on the availability of RNA and the written informed consent to participate in molecular genetic analyses of peripheral blood samples.
Pretreatment Peripheral Blood Mononuclear Cell (PBMC) samples positively selected for CD19+ cells were available from n=301 patients. CD19 separation was performed by magnetic bead separation according to the manufacturer's protocol (Miltenyi, Germany).
Pretreatment clinical features i.e demographics, prognostic markers (cytogenetic aberrations like del(17p), del(11q), ZAP70 and CD38 expression, IgVH status), progression free survival (PFS) were compared using the Fisher's exact, Mann-Whitney, or log-rank tests. A p-value of <0.05 was considered statistically significant.
Two approaches using a Cox regression model were used to identify genes and miRNA associated with survival. First approach considered the models below.
For the different tables and graphs appearing in this document where median PFS was computed, mRNA and miRNA signal intensities were dichotomized using the median value as a cutoff.

[1] = system: 3′UTR luciferase reporter constructs in HeLa cells; experiment: 3′UTR luciferase reporter assay with miRNA151 3p mimic vs scrambled mimic; format: cell-based; settings: 10 nM mimic, 24 hours post-transfection, normalized to scrambled control
Procedure: Predicted targets were downloaded from TARGETSCAN 5.1™ (http://www.targetscan.org/) and expression was extracted from the mRNA expression profiling data, irrespective of predicted site conservation. Anti-correlations with miRNAs were determined by comparing miRNA array and mRNA array data and computing Pearson correlation coefficients. […] Subsequently, 3′UTRs that met this threshold were cloned upstream into 3′UTR luciferase reporter constructs (Switchgear Genomics) and 100 ng of each construct was transfected into HeLa cells (ATCC) with 25 ng pRL-CMV, 10 nM miRNA151 3p mimic (Dharmacon) or scrambled mimic in 96-well plates. Luciferase activity was determined 24 hours post-transfection and all data were normalized to renilla luciferase transfection control and scrambled control mimic. Three biological replicates were performed. Statistical significance for a difference between scrambled control and miRNA151 3p mimic was determined by a 2-sided Student's t-test.

[2] = miRNA signal < median miRNA signal
[3] = miRNA signal > median miRNA signal

## fludarabine/cyclophosphamide [FC]
CLL patients; Array
  HR for PFS, miRNA151 < median vs > median within treatment arm: 0.99
  HR for PFS, miRNA409 < median vs > median within treatment arm: 1.12
CLL patients; gene < median
  Median PFS PTK2 Exon 1.0 ST: 17.9 months
  Median PFS PTK2 U133 plus2.0: 17.9 months
  Median PFS PTK2 qRT-PCR: 17.9 months
CLL patients; gene > median
  Median PFS PTK2 Exon 1.0 ST: 21.5 months
  Median PFS PTK2 U133 plus2.0: 21.5 months
  Median PFS PTK2 qRT-PCR: 21.5 months
CLL patients; [2]
  Median PFS miRNA151 DISCOVARRAY: 18 months
  Median PFS miRNA151 qRT-PCR: 17.9 months
  Median PFS miRNA409 DISCOVARRAY: 21.6 months
  Median PFS miRNA409 qRT-PCR: 18.3 months
CLL patients; [3]
  Median PFS miRNA151 DISCOVARRAY: 18.5 months
  Median PFS miRNA151 qRT-PCR: 20.7 months
  Median PFS miRNA409 DISCOVARRAY: 18 months
  Median PFS miRNA409 qRT-PCR: 18.3 months
CLL patients; Exon 1.0 ST, CD19+ cells
  HR for PFS, PTK2 < median vs > median within treatment arm: 0.86
CLL patients; RT-PCR
  HR for PFS, miRNA151 < median vs > median within treatment arm: 0.84
  HR for PFS, miRNA409 < median vs > median within treatment arm: 1.03
CLL patients; U133 + 2, CD19+ cells
  HR for PFS, PTK2 < median vs > median within treatment arm: 0.86
CLL patients; qRT-PCR, CD19+ cells
  HR for PFS, PTK2 < median vs > median within treatment arm: 0.77

## miRNA151 3p: miRNA151 3p mimic (Dharmacon); miRNA comprising the sequence CUAGACUGAAGCUCCUUGAGG (SEQ ID NO: 1) (synthetic mimic duplex, passenger strand not listed, further chemistry not given here; listed as Homo sapiens)
[1]
  3′UTRs showing a statistically significant reduction in luciferase activity (5 out of the 18): 28%
